The data set is described as follows: Single dose human oral bioavailability study (plasma DIM by LC-MS/MS). It counts as in vivo. Conditions: both sexes. The procedure: Study Design: Single Center, Single-Blind, Single Dose, Oral Bioavailability Study, with Subject Crossover.
In Part I of the Study, a treatment group was administered a 300 mg dose of DIM from BR-DIM or a 300 mg dose of DIM from crystalline DIM on the first study day, followed by crossover to the other DIM formulation on the second study day, at least 14 days following the first treatment. 3 subjects were given crystalline DIM, 4 subjects were given BR-DIM.
In Part II of the Study, five individuals, four of whom participated in Part I of the Study, were administered a 300 mg dose of DIM from DIM SMEDDS Formulation D. Testing of DIM SMEDDS formula D took place on one day with 5 subjects. The subjects were all healthy, adult volunteers, both male and female, not consuming DIM containing supplements and in a fasting state on study days. Volunteers agreed not to consume cruciferous vegetable for one week prior to study days. Study groups consisted of 3, 4, or 5 individuals.
A baseline blood specimen was collected. For Part I of the Study, subjects ingested matching, opaque gelatin capsules containing either crystalline DIM (300 mg) or BR-DIM providing 300 mg DIM. Then, the subjects provided 8 cc samples of blood was collected at Baseline, and 1 hr, 2 hr, 3 hr, 4 hr, and 6 hr after administration of each of the formulations. A standard small meal was given at 4 hrs.
A baseline blood specimen was collected. Subjects ingested opaque gelatin capsules containing SEDDS DIM formulation (in particular, Formulation D described above) providing 300 mg dissolved DIM. The DIM SMEDDS formulation was provided in 3 hard gelatin capsules each containing 100 mg of DIM. Subsequently, 8 cc samples of blood were obtained and 30 cc samples of urine will be obtained according to the following chart. Blood was collected at Baseline, and 1 hr, 2 hr, 3 hr, 4 hr, and 6 hr after administration of the drug. A standard small meal was given at 4 hrs.
Blood sample handling: Within 15 minutes, plasma was centrifuged and frozen, stored on dry ice, then stored at minus 80 until assayed.
Pharmacokinetic evaluation was performed for all subjects. Blood samples (˜8 ml for each) were collected at 0 (baseline), 1, 2, 3, 4, and 6 hours after the oral administration of the dose of DIM, BR-DIM, or DIM SMEDDS formulation (i.e., Formulation D described above). Within 15 minutes of the collection, the blood samples were centrifuged at 4° C., at 2000 g for 10 minutes, and plasma was collected immediately after centrifugation and transferred to the screw-cap polypropylene cryogenic tubes. The plasma samples were stored at −80° C. until analysis.
The concentrations of DIM in human plasma samples were determined by a validated high-performance liquid chromatography with tandem mass spectrometry (LC-MS/MS) method. Briefly, to 50 μl human plasma, 100 μl of 2% formic acid in methanol (containing 1 μg/mL internal standard zileuton) was added to precipitate proteins. The mixture was vortex-mixed for 1 minute, and centrifuged at 14,000 g at 4° C. for 10 minutes. The supernatant was collected and 10 μl was injected into the LC-MS/MS system. Chromatographic analysis was performed using a Waters model 2690 separation system (Milford, Mass., USA). The analytes were separated on a Waters X-Terra MS column (150 mm×2.1 mm i.d.) using a mobile phase consisting of methanol/0.45% formic acid (70:30, v/v), and isocratic flow at 0.2 mL/min. The analytes were monitored by a Waters Micromass triple quadrupole mass spectrometer (Milford, Mass., USA) using an electrospray probe in the positive ionization mode operating at a cone voltage of 23V for DIM and 13V for the internal standard zileuton. Samples were introduced into the ionization source through a heated nebulized probe (350° C.). The collision energy was set at 30 eV and 9 eV for DIM and zileuton, respectively. The transitions at 129.9>76.8 and 237.1>161.1 were monitored for DIM and zileuton, respectively. […]

[1] abbreviates: healthy humans, single oral dose 300 mg DIM, averaged.

The values that follow come from patent US10441569B2, “Self-emulsifying formulations of DIM-related indoles” (BioResponse, L.L.C., priority 2015, dated 2019).

One may read the AUC(0-inf) as total exposure, with the tail of the curve extrapolated. Low values mean low exposure, high ones high exposure. What is called Cmax is the highest concentration seen after dosing. Broadly, the Tmax is the time from dosing to the highest level. By half-life is commonly meant how long it takes for the measured level to halve. Low readings indicate fast loss, high ones slow loss. The AUC is concentration integrated over time. High values mean more exposure, low ones less exposure. As to `c1ccc2c(Cc3c[nH]c4ccccc34)c[nH]c2c1` [DIM, 3,3′-diindolylmethane], under setting [1], the AUC(0-inf) was determined as 0.0985 µg·h/mL, the Cmax is 0.0181 µg/mL, the Tmax was 1.7 h and the half-life was 2.2 h. Moreover, the concentration at 0 h (time 0 hour (baseline), 300 mg oral, read-out: averaged plasma level of DIM) came to 0 µg/mL. Besides, the concentration at 1 h (time 1 hour, 300 mg oral, read-out: averaged plasma level of DIM) was determined as 0.0178 µg/mL. Further, the concentration at 2 h (time 2 hour, 300 mg oral, read-out: averaged plasma level of DIM) was 0.0167 µg/mL. For the setting “time 3 hour, 300 mg oral, read-out: averaged plasma level of DIM”, the concentration at 3 h worked out at 0.0106 µg/mL. Further, the concentration at 4 h (time 4 hour, 300 mg oral, read-out: averaged plasma level of DIM) was 0.01 µg/mL. Also, the concentration at 6 h (time 6 hour, 300 mg oral, read-out: averaged plasma level of DIM) amounted to 0.0058 µg/mL. The AUC (time zero to infinity, 300 mg oral) was 0.0985 µg·h/mL.
